14 compounds from ChEMBL document CHEMBL5214937, “Comparative analysis of p-terphenylquinone and seriniquinone derivatives as reactive oxygen species-modulating agents” (Bioorg Med Chem Lett, 2022) can be followed below.

Calls of active or inactive are those of the source. The calls are words filed in the database; no cut-off is given here.

Test [1] deals with HL-60. The test can be described thus: Antiproliferative activity against human HL-60 cells assessed as reduction in cell viability at 12.5 uM incubated for 48 hrs by CCK-8 assay relative to control. Format: functional. A general note: Formazan colour is commonly taken as a measure of viable cells.
The subject of the next test is B16. The test can be described thus: Antiproliferative activity against mouse B16 cells assessed as inhibition of cell growth incubated for 48 hrs by CCK-8 assay. Particulars: B16, 48 h. The format is functional, cell-based.
Test [2] deals with HL-60. In words: Antiproliferative activity against human HL-60 cells assessed as inhibition of cell growth incubated for 48 hrs by CCK-8 assay. Format: functional, cell-based. Particulars: HL-60, 48 h.
Test [3] deals with HL-60. The test can be described thus: Induction of ROS generation in human HL-60 cells assessed as fold increase in intracellular ROS level at 6.25 uM incubated for 3 hrs by NBT reduction assay relative to control. The format is functional.
Test [4] relates to HL-60. In words: Induction of cell morphological changes in human HL-60 cells assessed as chromatin condensation at 3 uM incubated for 48 hrs by Hoechst 33342 staining based microscopic analysis. Format: functional.
The test system of test [5] is HL-60. The test can be described thus: Induction of cell morphological changes in human HL-60 cells assessed as appearance of apoptotic bodies at 3 uM incubated for 48 hrs by Hoechst 33342 staining based microscopic analysis. The format is functional.
Test [6] relates to HL-60. The test can be described thus: Induction of ROS generation in human HL-60 cells assessed as increase in extracellular ROS level at 6.25 uM incubated for 3 hrs by NBT reduction assay. The format is functional, cell-based.

What is called IC50 is the concentration that inhibits the measured activity by half.

As to `COc1ccc2c(=O)c3c(oc4c5ccc(OC)cc5c(=O)c(=O)c43)c(=O)c2c1`, the Activity in the test on HL-60 [1] is 74%.

For the compound `O=c1c2ccccc2c(=O)c2c1[se]c1c(=O)c3ccccc3c(=O)c12`, the figures for the IC50 with B16 and in the test on HL-60 [2] were 2830 nM and 2910 nM, respectively. Also, the Activity in the test with HL-60 [1] is given as <10%. Moreover, the “fold change (FC)” value with HL-60 [3] is recorded as >4. The outcome in the test on HL-60 [4] and in the test on HL-60 [5] was Active.

`O=c1c2ccccc2c(=O)c2c1sc1c(=O)c3ccccc3c(=O)c12`: the IC50 in the test with B16 worked out at 2380 nM; in the test on HL-60 [2] it was 1730 nM. In addition, in the test on HL-60 [1], the Activity was <10%. Also, the “fold change (FC)” value with HL-60 [3] is >4. The outcome in the test on HL-60 [4] and in the test with HL-60 [5] was Active.

For the compound `O=c1c2ccccc2c(=O)c2c1oc1c(=O)c3ccccc3c(=O)c12`, the IC50 with B16 came to 180 nM; in the test with HL-60 [2], 70 nM. Moreover, in the test on HL-60 [1], the Activity is given as <10%. Besides, the “fold change (FC)” value in the test on HL-60 [3] is given as >4. The result in the test with HL-60 [4] and in the test on HL-60 [5] was Active.

On to `O=C1C(O)=C(c2ccc(O)cc2)C(=O)C(O)=C1c1ccc(O)cc1`, for which the IC50 in the test with HL-60 [2] was determined as 5710 nM.

Take `O=C1C(OC(=O)c2ccccc2)=C(c2ccc(O)cc2)C(=O)C(OC(=O)c2ccccc2)=C1c1ccc(O)cc1`: the IC50 in the test with HL-60 [2] was > 25000 nM.

With `COC1=C(c2ccc(O)cc2)C(=O)C(OC)=C(c2ccc(O)cc2)C1=O`, in the test on HL-60 [2], the IC50 is > 25000 nM.

Consider `COc1ccc2c(=O)c3oc4c5cc(OC)ccc5c(=O)c(=O)c4c3c(=O)c2c1`, for which the Activity in the test on HL-60 [1] turned out to be 11%.

For `COC1=C(c2ccc(OC)cc2)C(=O)C(OC)=C(c2ccc(OC)cc2)C1=O`, the half-maximal inhibitory concentration (IC50) in the test with HL-60 [2] was > 25000 nM.

In the case of `O=C1C(O)=C(c2ccccc2)C(=O)C(O)=C1c1ccccc1`, in the test on HL-60 [2], the IC50 is > 25000 nM.

With `COc1ccc(C2=C(O)C(=O)C(c3ccc(OC)cc3)=C(O)C2=O)cc1`, in the test with HL-60 [2], the IC50 is > 25000 nM.

On to `O=c1c(=O)c2c(oc3c(=O)c4ccccc4c(=O)c32)c2ccccc12`, for which the IC50 was found to be 2950 nM with B16 and 1570 nM with HL-60 [2]. In addition, in the test with HL-60 [1], the Activity is given as <10%. Also, in the test with HL-60 [3], the “fold change (FC)” value is recorded as >4. Also, the outcome in the test with HL-60 [6], in the test on HL-60 [4] and in the test with HL-60 [5] was Active.

In the case of `COc1ccc2c(=O)c3sc4c(=O)c5ccc(OC)cc5c(=O)c4c3c(=O)c2c1`, the Activity in the test with HL-60 [1] is 31.8%.

As for `COC1=C(c2ccccc2)C(=O)C(OC)=C(c2ccccc2)C1=O` [BETULINAN A], the IC50 in the test with HL-60 [2] came out at 5910 nM.
